Like-named read-outs stand apart in the source and are kept apart here.
Assays:
NK2-receptor = target: T1, NK2-receptor (Cavia porcellus, UniProt Q64077); assay: NK2-receptor-antagonistic effectiveness in vivo, NKA-induced late hypotension, bronchoconstriction and colonic pressure in anaesthetised guinea pigs; conditions: guinea pig; for ED50 iv after 1 min (cumulative), NK2 (bronchoconstriction) / ED50 iv after 1 min (cumulative), NK2 (colonic motility) / ED50 iv after 1 min (cumulative), NK2 (late hypotension) / ED50 AUC1-180 min oral, NK2 (bronchoconstriction) / ED50 AUC1-180 min oral, NK2 (colonic motility) / ED50 AUC1-180 min oral, NK2 (late hypotension): NKA 200 pmol/animal i.v.; for ED50 iv after 1 min (cumulative), NK2 (bronchoconstriction) / ED50 iv after 1 min (cumulative), NK2 (colonic motility) / ED50 iv after 1 min (cumulative), NK2 (late hypotension): intravenous administration; for oral activity on the NK2, in words / ED50 AUC1-180 min oral, NK2 (bronchoconstriction) / ED50 AUC1-180 min oral, NK2 (colonic motility) / ED50 AUC1-180 min oral, NK2 (late hypotension): oral administration
T1 construct: from tissue; host or cells: whole animal (Pirbright-White guinea pigs), in vivo
T1 sequence (Q64077 1-402): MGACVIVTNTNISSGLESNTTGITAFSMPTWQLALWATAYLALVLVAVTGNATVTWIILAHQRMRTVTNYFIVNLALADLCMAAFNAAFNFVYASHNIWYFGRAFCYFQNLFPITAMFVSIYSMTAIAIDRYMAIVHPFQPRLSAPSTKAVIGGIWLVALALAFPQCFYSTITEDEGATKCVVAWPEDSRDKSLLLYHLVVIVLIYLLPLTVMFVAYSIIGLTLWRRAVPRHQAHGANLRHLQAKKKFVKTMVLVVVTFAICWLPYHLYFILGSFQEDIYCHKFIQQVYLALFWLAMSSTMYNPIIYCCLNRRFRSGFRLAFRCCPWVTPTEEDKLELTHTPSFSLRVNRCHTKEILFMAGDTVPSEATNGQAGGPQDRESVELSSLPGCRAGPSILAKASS
Source text: 10. Determination of the NK1- and NK2-Receptor-Antagonistic Effectiveness of the Test Substances In Vivo
The NK1- and NK2-antagonistic activities of the test substances were investigated in anaesthetised guinea pigs in each case after intravenous (=i.v.) and oral (=p.o.) administration in vivo. With the present test model it is possible to detect both NK2-antagonistic effects in three different organ systems (respiratory tracts, colon and circulation) and NK1-antagonistic effects (rapid drop in blood pressure) in an animal simultaneously.
Pirbright-White guinea pigs of a body weight of 500-700 g were anaesthetised with ketamine/xylazine (67/13 mg/kg subcutaneously, initial dose, further doses administered as required). The animals were provided with an intravenous catheter in order to administer the substance and an intra-arterial catheter to measure the blood pressure. The animals were artificially ventilated via a tracheal cannula and the respiratory pressure was recorded by means of a pressure transducer. A balloon was introduced into the distal colon of the animals for manometric recording of colon motility by means of a pressure transducer. Blood pressure, heart rate, respiratory pressure and colonic pressure were measured continuously for each animal and plotted on a recorder and by means of a digital data-processing system. […] The second phase of delayed hypotension (=phase of maximum hypotension after 2-5 min.) on the other hand is mediated via NK2-receptors, since they can be blocked by specific NK2-receptor antagonists.
These ED50 values obtained from cumulative dose effect curves are plotted in Table 13.

NK3-receptor = target: T2, NK3-receptor (Cavia porcellus, UniProt P30098); assay: NK-3-receptor-antagonistic effectiveness in vivo, senktide-induced hypertension in guinea pigs; conditions: guinea pig; for ID50 (iv), inhibition of blood pressure / ID50 (po), inhibition of blood pressure: senktide 0.4 μg/kg i.v.; for ID50 (iv), inhibition of blood pressure: intravenous administration; for ID50 (po), inhibition of blood pressure: oral administration
T2 construct: from tissue; host or cells: whole animal (Dunkin Hartley guinea pigs), in vivo
T2 sequence (P30098 1-440): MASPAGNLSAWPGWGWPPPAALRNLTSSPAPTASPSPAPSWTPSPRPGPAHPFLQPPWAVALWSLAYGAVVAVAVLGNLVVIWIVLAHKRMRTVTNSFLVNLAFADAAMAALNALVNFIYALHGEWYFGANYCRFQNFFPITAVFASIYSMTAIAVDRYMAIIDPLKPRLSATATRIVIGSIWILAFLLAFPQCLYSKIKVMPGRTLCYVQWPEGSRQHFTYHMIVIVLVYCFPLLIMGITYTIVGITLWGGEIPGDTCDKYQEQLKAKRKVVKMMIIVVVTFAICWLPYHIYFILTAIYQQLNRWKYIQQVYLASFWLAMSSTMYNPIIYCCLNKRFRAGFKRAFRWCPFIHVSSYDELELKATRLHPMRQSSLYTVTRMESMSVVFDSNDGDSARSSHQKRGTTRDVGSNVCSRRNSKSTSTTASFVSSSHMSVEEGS
Method: 9. Determination of the NK-3-Receptor-Antagonistic Effectiveness of the Test Substances In Vivo (Reduction of Blood Pressure in Guinea-Pigs with Senktide-Induced Hypertension)
NK3 agonists increase the blood pressure in guinea pigs. The senktide-induced hypertension can be antagonized by administering compounds with NK3-antagonistic properties. Measuring the level of hypertension is indicative of the degree of activity of the test compounds. The effect of the tested compound is assessed in the same experiment to exclude an additional hypertensional effect.
Male Dunkin Hartley guinea pigs with a body weight between 450 and 550 g were anesthetized with Ketamin (200 mg/kg i.m.; Aescoket 10%) and the left carotid artery and left jugular vein were cannulated for blood pressure measurement and drug application, respectively. The animals were allowed to breathe spontaneously. Blood pressure was measured with a strain gauge transducer connected to a computer via an amplifier.
For oral administration, vehicle (1% methylcellulose) or test compound was administered in a dose volume of 5 ml/kg. Forty five minutes thereafter, anesthesia was induced and the carotid artery and jugular vein were cannulated.
For intravenous administration, the test compounds were dissolved in 40% hydroxypropyl-β-cyclodextrine (HPCD) containing 10% DMSO, diluted with saline and administered intravenously in cumulative dose ranges. A vehicle group of animals received the corresponding HPCD/DMSO solutions instead of the test compound. For oral administration, the test compound was suspended in 1% methylcellulose. A vehicle group of animals received the corresponding […] of the test compound.

human NK3 receptor = target: T3, human NK3 receptor (Homo sapiens, UniProt P29371); assay: Functional cellular test, Ca2+ measurements using aequorin for NK3 activity; format: cell-based; set-up: expressed in transfected cells; host or cells: cell line co-expressing mitochondrially targeted apoaequorin (CHO according to b76/b77); conditions: for pA2 data for NK3: cell line with human NK3 receptor and apoaequorin, agonist senktide 5x10-8 M; for Kb: read-out: pA2 data for NK3 (converted)
T3 sequence (P29371 1-465): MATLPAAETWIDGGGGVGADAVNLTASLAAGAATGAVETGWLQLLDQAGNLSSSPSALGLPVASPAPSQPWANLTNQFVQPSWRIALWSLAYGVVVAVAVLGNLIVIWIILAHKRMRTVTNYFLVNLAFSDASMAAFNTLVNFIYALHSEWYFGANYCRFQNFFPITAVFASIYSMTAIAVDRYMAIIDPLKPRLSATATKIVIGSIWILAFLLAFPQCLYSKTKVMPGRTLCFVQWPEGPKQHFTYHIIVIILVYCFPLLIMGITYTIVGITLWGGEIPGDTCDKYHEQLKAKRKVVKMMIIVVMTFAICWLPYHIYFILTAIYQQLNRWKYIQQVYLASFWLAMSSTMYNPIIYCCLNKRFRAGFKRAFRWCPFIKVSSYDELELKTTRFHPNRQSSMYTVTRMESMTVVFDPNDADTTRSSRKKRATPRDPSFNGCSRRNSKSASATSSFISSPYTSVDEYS

[1] = iv, read-out: ED50 iv after 1 min (cumulative), NK2 (bronchoconstriction)
[2] = iv, read-out: ED50 iv after 1 min (cumulative), NK2 (colonic motility)
[3] = iv, read-out: ED50 iv after 1 min (cumulative), NK2 (late hypotension)
[4] = iv, read-out: ID50 (iv), inhibition of blood pressure

Structure (SMILES) | ED50 iv after 1 min (cumulative), NK2 (bronchoconstriction) (NK2-receptor) | ED50 iv after 1 min (cumulative), NK2 (colonic motility) (NK2-receptor) | ED50 iv after 1 min (cumulative), NK2 (late hypotension) (NK2-receptor) | ID50 (iv), inhibition of blood pressure (NK3-receptor) | pA2 data for NK3 (human NK3 receptor) | ED50 (NK2-receptor; [1]) | ED50 (NK2-receptor; [2]) | ED50 (NK2-receptor; [3]) | oral activity on the NK2, in words (NK2-receptor) | ED50 (NK3-receptor; [4]) | Kb (human NK3 receptor) | ID50 (po), inhibition of blood pressure (NK3-receptor) | other results
CN(C)C(=O)C1(N2CCCCC2)CCN(CC[C@H](CN(C)C(=O)c2cc(F)ccc2F)c2ccc(Cl)c(Cl)c2)CC1 [compound 15] | 0.075 µmol/kg | 0.066 µmol/kg | 0.1 µmol/kg | 0.3732 mg/kg | 8.1 |  |  |  |  |  |  |  | 
CN(C)C(=O)C1(N2CCCCC2)CCN(CC[C@H](CN(C)C(=O)C2CCCCC2)c2ccc(Cl)c(Cl)c2)CC1 [compound 3] | 0.221 µmol/kg | 0.07 µmol/kg | 0.397 µmol/kg |  | 8.2 |  |  |  |  |  |  |  | 
CN(C)C(=O)C1(N2CCCCC2)CCN(CC[C@H](CN(C)C(=O)c2ccccc2)c2ccc(Cl)c(Cl)c2)CC1 [compound 1] |  |  |  |  |  | 0.033 µmol/kg | < 0.003 µmol/kg | 0.044 µmol/kg | active orally on the NK2 | 0.256 mg/kg | 2.51 nM |  | ED50 (NK2-receptor; read-out: ED50 AUC1-180 min oral, NK2 (bronchoconstriction)): 0.457 µmol/kg; ED50 (NK2-receptor; read-out: ED50 AUC1-180 min oral, NK2 (colonic motility)): 1.08 µmol/kg; ED50 (NK2-receptor; read-out: ED50 AUC1-180 min oral, NK2 (late hypotension)): 2.24 µmol/kg; ED50 (NK3-receptor; po, read-out: ID50 (po), inhibition of blood pressure): 6.38 mg/kg
CN(C)C(=O)C1(N2CCCCC2)CCN(CC[C@H](CN(C)C(=O)c2ccc(F)cc2)c2ccc(Cl)c(Cl)c2)CC1 [compound 4] | 0.058 µmol/kg | 0.053 µmol/kg | 0.04 µmol/kg | 0.7564 mg/kg | 8.2 |  |  |  | active orally on the NK2 |  |  | 2.3313 mg/kg | ED50 AUC1-180 min oral, NK2 (bronchoconstriction) (NK2-receptor): <3.2 µmol/kg; ED50 AUC1-180 min oral, NK2 (colonic motility) (NK2-receptor): <3.2 µmol/kg; ED50 AUC1-180 min oral, NK2 (late hypotension) (NK2-receptor): 12 µmol/kg
CN(C)C(=O)C1(N2CCCCC2)CCN(CC[C@H](CN(C)C(=O)c2ccc(F)cc2F)c2ccc(Cl)c(Cl)c2)CC1 [compound 13] |  |  |  | 0.5013 mg/kg | 8.0 |  |  |  |  |  |  | <10 mg/kg | 
CN(C)C(=O)C1(N2CCCCC2)CCN(CCC(CN(C)C(=O)c2ccc(Cl)nc2)c2ccc(Cl)c(Cl)c2)CC1 (stereo not drawn) [compound 18] |  |  |  |  |  | 0.18 µmol/kg | 0.068 µmol/kg | 0.181 µmol/kg |  | 1.01 mg/kg | 10 nM |  | 
CN(C)C(=O)C1(N2CCCCC2)CCN(CCC(CN(C)C(=O)c2cccnc2)c2ccc(Cl)c(Cl)c2)CC1 (stereo not drawn) [compound 19] |  |  |  |  |  | 0.093 µmol/kg | 0.028 µmol/kg | 0.209 µmol/kg |  | 0.39 mg/kg | 50.1 nM |  | 
CN(C)C(=O)C1(N2CCCCC2)CCN(CC[C@H](CN(C)C(=O)c2cc(C#N)c3ccccc3c2)c2ccc(Cl)c(Cl)c2)CC1 [compound 11] | 0.052 µmol/kg | 0.085 µmol/kg | 0.212 µmol/kg | 1.0554 mg/kg | 8.1 |  |  |  | active orally on the NK2 |  |  | 10 mg/kg | ED50 AUC1-180 min oral, NK2 (bronchoconstriction) (NK2-receptor): 2.213 µmol/kg; ED50 AUC1-180 min oral, NK2 (colonic motility) (NK2-receptor): 11.228 µmol/kg; ED50 AUC1-180 min oral, NK2 (late hypotension) (NK2-receptor): 2.509 µmol/kg
CN(C)C(=O)C1(N2CCCCC2)CCN(CC[C@H](CN(C)C(=O)c2ccc(F)c(F)c2)c2ccc(Cl)c(Cl)c2)CC1 [compound 14] | 0.26 µmol/kg | 0.245 µmol/kg | 0.247 µmol/kg | 0.5168 mg/kg | 8.1 |  |  |  |  |  |  | 6.811 mg/kg | 
CN(C)C(=O)C1(N2CCCCC2)CCN(CC[C@H](CN(C)C(=O)c2ccc(O)cc2)c2ccc(Cl)c(Cl)c2)CC1 [compound 6, 1′-{(3S)-3-(3,4-dichlorophenyl)-4-[(4-hydroxybenzoyl)-(methyl)amino]butyl}-N,N-dimethyl-1,4′-bipiperidine-4′-carboxamide] |  |  |  |  |  | 0.06 µmol/kg | 0.096 µmol/kg | 0.04 µmol/kg |  | 0.157 mg/kg | 2 nM |  | 

Reference: patent publication US20070219214A1, “Dual NK2/NK3-antagonists, pharmaceutical compositions comprising them, and processes for their preparation” (Solvay pharmaceuticals GmbH, priority 2006, published 2007)
